Assay results from patent US7968588B2, “Injectable formulation of antibiotic and solution for intravenous administration thereof” (eRigen Pharmaceuticals, Inc., priority 2006, dated 2011).
Starred links: 1 amine or outer side, 2 acyl side, 3 side chain; linkers in the order of their positions; H or OH if unused. Positions of bridges follow the written chain, without caps; N, C: chain ends. Non-standard residues stand in square brackets, D forms with d. Residues, ends and D or L forms follow the SMILES beside them. ξ: configuration not given here. ξAsn(3ξ-OH) = NC(=O)C(O)C(N)C(=O)O; X1 = CC(C)CCCC(CC(=O)[*:1])O[*:2]; NMeF = CN[CH](Cc1ccccc1)C(=O)O; NMeV = CN[CH](C(=O)O)C(C)C; Orn = NCCC[CH](N)C(=O)O

Test system: MRSA (strain ATCC 33591)
Experiment: In vivo efficacy study in a MRSA infection model in mice
Set-up: species or system Staphylococcus aureus
Conditions: for survival (%) at dosage 1.0 mg/kg: single i.v. dose 1.0 mg/kg one hour after i.v. MRSA inoculation; for survival (%) at dosage 3.0 mg/kg: single i.v. dose 3.0 mg/kg one hour after i.v. MRSA inoculation; for 50% effective dose: single i.v. dose, calculated from the survival rate at each dosage
Protocol: Efficacy was compared between the present solution of WAP-8294A2 prepared in the manner shown in Example 4 and vancomycin for injection (5% dextrose solution) using an MRSA infection model in mice.
The 50% effective dose (mg/kg) was calculated from the survival rate at each dosage.

| SMILES | survival (%) at dosage 1.0 mg/kg (observed for a week) [%] | survival (%) at dosage 3.0 mg/kg (observed for a week) [%] | survival (%) at dosage 10 mg/kg (single i.v. dose 10 mg/kg one hour after i.v. MRSA inoculation, observed for a week) [%] | 50% effective dose [mg/kg] | survival (%) at dosage 0.01 mg/kg (single i.v. dose 0.01 mg/kg one hour after i.v. MRSA inoculation, observed for a week) [%] | survival (%) at dosage 0.03 mg/kg (single i.v. dose 0.03 mg/kg one hour after i.v. MRSA inoculation, observed for a week) [%] | survival (%) at dosage 0.1 mg/kg (single i.v. dose 0.1 mg/kg one hour after i.v. MRSA inoculation, observed for a week) [%] | survival (%) at dosage 0.3 mg/kg (single i.v. dose 0.3 mg/kg one hour after i.v. MRSA inoculation, observed for a week) [%] |
| --- | --- | --- | --- | --- | --- | --- | --- | --- |
| CN[C@H](CC(C)C)C(=O)N[C@H]1C(=O)N[C@@H](CC(N)=O)C(=O)N[C@H]2C(=O)N[C@H]3C(=O)N[C@H](C(=O)N[C@H](C(=O)O)c4cc(O)cc(O)c4-c4cc3ccc4O)[C@H](O)c3ccc(c(Cl)c3)Oc3cc2cc(c3O[C@@H]2O[C@H](CO)[C@@H](O)[C@H](O)[C@H]2O[C@H]2C[C@](C)(N)[C@H](O)[C@H](C)O2)Oc2ccc(cc2Cl)[C@H]1O [vancomycin, reference compound] | 0 | 30 | 100 | 3.12 | – | – | – | – |
| CC(C)CCCC1CC(=O)NC(CO)C(=O)NC(C(O)C(N)=O)C(=O)NC(CO)C(=O)NCC(=O)N(C)C(Cc2ccccc2)C(=O)NC(CC(C)C)C(=O)NC(CCCN)C(=O)NC(CCC(=O)O)C(=O)NC(CC(N)=O)C(=O)NC(Cc2c[nH]c3ccccc23)C(=O)NC(CCCN)C(=O)N(C)C(C(C)C)C(=O)O1 (centres unmarked) [WAP-8294A2] (S[ξAsn(3ξ-OH)]SG[NMeF]L[Orn]ENW[Orn][NMeV]; linker N-C via X1; configuration not given here) | 100 | 100 | – | 0.06 | 10 | 30 | 60 | 100 |
